In general, IC50 refers to the point on the concentration scale where inhibition reaches its midpoint. For orientation: inhibition means the relative decrease from the control value, in per cent.

In assay [1] the target is T1, LTD4 binding (Cavia porcellus, UniProt Q2NNR5).
T1 construct: from tissue
T1 sequence (Q2NNR5 1-340): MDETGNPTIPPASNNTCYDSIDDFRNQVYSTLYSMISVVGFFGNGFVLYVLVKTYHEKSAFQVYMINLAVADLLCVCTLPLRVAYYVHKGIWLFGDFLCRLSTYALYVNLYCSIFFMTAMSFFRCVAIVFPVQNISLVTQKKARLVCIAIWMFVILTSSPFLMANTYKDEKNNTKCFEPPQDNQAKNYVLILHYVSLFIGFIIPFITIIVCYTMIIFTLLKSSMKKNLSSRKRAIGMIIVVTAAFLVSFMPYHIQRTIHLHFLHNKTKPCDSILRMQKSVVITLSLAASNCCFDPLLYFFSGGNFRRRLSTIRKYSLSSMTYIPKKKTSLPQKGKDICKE
Kind of assay: LTD4 binding assay. Conditions: for IC50: 50% LTD4 bound, unit inferred, read-out: LTD4 binding assay, drug conc. (IC50 values for the numbered examples); for LTD4 binding activity, times greater than the reference compound: relative to the reference compound of Table I. As for the experimental part: The results for LTD4 binding were determined by the method of S. S. Pong and R. N. DeHaven, Proc. Nat. Acad. Sci. U.S.A., 80, 7415-7419 (1983).
The drug concentration in the LTD4 binding assay for the numbered examples are the IC50 values. The LTD4 binding activity of these ranges from at least 14 (Ex. 85) to at least 214 (Ex. 71) times greater than the reference compound. The actual differences are even greater since an IC50 was not obtained for the reference compound.

In assay [2] the test system is guinea pig ileum (LTD4 induced contractions). In words: Guinea-pig ileum assay: inhibition of LTD4 induced contractions. To be noted: for inhibition at 0.001 µg/mL / inhibition at 0.01 µg/mL / inhibition at 0.1 µg/mL / inhibition at 1 µg/mL / inhibition at 10 µg/mL: Cavia porcellus, LTD4 0.3 ng/mL, read-out: % inhibition of LTD4 induced contractions, G.P. ileum assay; for inhibition at 0.001 µg/mL: drug conc. 0.001 μg/mL; for inhibition at 0.01 µg/mL: drug conc. 0.01 μg/mL; for inhibition at 0.1 µg/mL: drug conc. 0.1 μg/mL; for inhibition at 1 µg/mL: drug conc. 1 μg/mL; for inhibition at 10 µg/mL: drug conc. 10 μg/mL; for ability to inhibit LTD4 contractions of the guinea pig ileum, times greater than the reference compound: relative to the reference compound of Table I. The arrangement: species or system male Hartley strain guinea pigs. The procedure:
Guinea-Pig Ileum Preparation for Evaluation of Antagonists of Leukotriene D4 and Other Mediators
Tissue--Sections of ileum were taken from male Hartley strain guinea pigs (Charles River, U.S.A.) 300 to 500 g which were sacrificed by a blow to the head and exsanguinated. Terminal ileum was removed, cleaned with warm Tyrode's solution and then divided into segments of approximately […]. The segments of ileum were then mounted under 1 g tension in a 20 mL organ bath containing 10 mL of Tyrode's solution with the following composition (mM): NaCl, 137; KCl, 2.7; MgSO4, 7H2 O, 0.8; CaCl2, 1.8; NaH2 PO4, 0.42; NaHCO3, 11.9; Dextrose, 5.6. The bathing solution was continuously aerated with 95% O2 and 5% CO2 and bath temperature was maintained at 37° C. The beta adrenoceptor blocker, timolol (0.5 μg/mL) and the antimuscarinic agent atropine (1.0 μM) were present in the Tyrodeμs solution. Isometric tension changes were recorded using Grass FTO3 force displacement transducers (Grass Instrument G., Quincy, Mass.) connected to a Beckman Type R Dynograph. In order to wash the tissue, the bath solution was automatically aspirated and replaced with a constant volume (10 mL) of fresh solution by means of timer controlled solenoid valves.
After the tissues were stable a standard dose of LTD4 (0.3 ng/mL) was repeatedly added to the bath every 4-5 minutes (min contact, 30 sec wash, 3 min rest) until a consistent response was obtained (minimum of 4 responses). Following each addition of LTD4 the tissue was washed with Tyrode's solution until baseline tension was re-established. After consistent responses were obtained the tissues were used to screen compounds.
Usually, 10 μL of a 10 mg/mL solution of the compound to be tested was added to the bath 30 secs prior to the addition of LTD4. The compound and LTD4 remained in contact with the tissue until the maximum tension was developed (1 min) after which the tissue was washed repeatedly until the baseline was re-established. Percent inhibition relative to the immediately preceding control response was calculated for each dose of test compound. […] Provided the response was inhibited by less than 20%, the tissue was used immediately to evaluate another compound; when the response was inhibited by greater than 20%, cycles of LTD4 alone were added until a consistent response was re-established.

`CC(Oc1cccc(/C=C/c2ccc3ccc(Cl)cc3n2)c1)c1nn[nH]n1` (racemic) [Example 71, 5-(1-(3-(2-(7-chloroquinolin-2-yl)ethenyl)-phenoxy)ethyl)tetrazole]: in assay [1], the IC50 stood at 14 nM and the “LTD4 binding activity, times greater than the reference compound” value is “at least 214 times”. In addition, the “% LTD4 bound, LTD4 binding assay” value in assay [1] (at the drug conc. (IC50)) is recorded as 50%. Further, in assay [2], the inhibition at 0.001 µg/mL was 67%, the inhibition at 0.01 µg/mL was 92%, the inhibition at 0.1 µg/mL is 100% and the inhibition at 1 µg/mL is 98%. Further, in assay [2], the inhibition at 10 µg/mL is 97% and the “ability to inhibit LTD4 contractions of the guinea pig ileum, times greater than the reference compound” value was “over 1000 times”.

Regarding `CC(Oc1cccc(C2CC2c2ccc3ccc(Cl)cc3n2)c1)c1nn[nH]n1` (stereo not drawn), the “% LTD4 bound, LTD4 binding assay” value in assay [1] (at the drug conc. (IC50)) is 50%. Also, in assay [2], the inhibition at 0.01 µg/mL is 37%, the inhibition at 0.1 µg/mL was determined as 87%, the inhibition at 1 µg/mL was found to be 96% and the inhibition at 10 µg/mL was determined as 94%.

For `CC(Oc1cccc(OCc2ccc3ccc(Br)cc3n2)c1)C(=O)O` (stereo not drawn) [Example 85, 2-(3-(7-bromoquinolin-2-ylmethoxy)phenoxy)propanoic acid], in assay [1], the IC50 came to 220 nM and the “LTD4 binding activity, times greater than the reference compound” value is “at least 14 times”. Besides, the “% LTD4 bound, LTD4 binding assay” value in assay [1] (at the drug conc. (IC50)) came out at 50%. In addition, in assay [2], the inhibition at 0.001 µg/mL worked out at 0%, the inhibition at 0.01 µg/mL was determined as 10%, the inhibition at 0.1 µg/mL amounted to 57% and the inhibition at 1 µg/mL was determined as 93%. In addition, in assay [2], the inhibition at 10 µg/mL is 100% and the “ability to inhibit LTD4 contractions of the guinea pig ileum, times greater than the reference compound” value was “about 20 times”.

`CC(Oc1cccc(C#Cc2ccc3ccc(Br)cc3n2)c1)C(=O)O` (stereo not drawn): the IC50 in assay [1] worked out at 96 nM. Besides, the “% LTD4 bound, LTD4 binding assay” value in assay [1] (at the drug conc. (IC50)) was 50%. Besides, in assay [2], the inhibition at 0.001 µg/mL was determined as 50%, the inhibition at 0.01 µg/mL is 91%, the inhibition at 0.1 µg/mL amounted to 94% and the inhibition at 1 µg/mL stood at 98%. Besides, the inhibition at 10 µg/mL in assay [2] worked out at 97%.

Regarding `CC(Oc1cccc(Sc2ccc3ccc(Cl)cc3n2)c1)C(=O)O` (stereo not drawn) [reference compound], the “% LTD4 bound, LTD4 binding assay” value in assay [1] (reference compound, drug conc. 3 × 10^-6 (unit not given)) stood at 76%. Also, in assay [2], the inhibition at 1 µg/mL is 27% and the inhibition at 10 µg/mL came out at 89%.

Consider `CC(Oc1cccc(/C=C/c2ccc3ccc(Cl)cc3n2)c1)C(=O)O` (stereo not drawn), for which the “% LTD4 bound, LTD4 binding assay” value in assay [1] (at the drug conc. (IC50)) turned out to be 50%. Also, in assay [2], the inhibition at 0.001 µg/mL is 38%, the inhibition at 0.01 µg/mL worked out at 94%, the inhibition at 0.1 µg/mL amounted to 95% and the inhibition at 1 µg/mL came to 97%. In assay [2], the inhibition at 10 µg/mL came to 94%.

Values taken from patent publication US4962203A, “2-substituted quinolines useful as leukotriene antagonists” (Merck Frost Canada, Inc., priority 1989, dated 1990).
